Test results reported in patent US8674113B2, “Compounds” (Boehringer Ingelheim International GmbH, priority 2010, dated 2014).
Read-outs that look alike come from different tables or passages of the source.

Tests used:
[1] = target: recombinant human mPGES-1 (Homo sapiens (Human), UniProt O14684); experiment: mPGES-1 enzyme assay (HTRF detection of PGE2); assay type: biochemical
Procedure: Microsomes from Rosetta E. coli bacteria expressing recombinant human mPGES-1 can be derived as described below:
Inoculate 5 ml LB with Ampicilin (50 μg/ml) and Chloramphenicol (34 μg/ml) with bacteria from freeze culture. Incubate 8 h at 37° C. with 200 rpm. Thereafter, inoculate 500-1000 ml LB containing Amp and Chloro with the 5 ml on culture and grow to OD640 of 0.8-1.0. Chill the culture to +4° C. before induction. Induce the culture with IPTG at a final concentration of 400 μM. Express the protein at room temp 18-23° C. with 200 rpm shaking over night.
The following steps can be performed on the following day: • 1. Spin down the cells in 250 ml centrifuge flasks for 15 min at 7000 rpm (Beckmann Coulte Avanti J-E centrifuge) • 2. Dissolve the pellet from 250 ml culture in 12.5 ml homogenization buffer • 3. (15 mM Tris-HCL pH8, 1 mM EDTA pH8, […], 2.5 mM GSH, 1 Tablet Protease inhibitor per 50 ml buffer) • 4. Disintegrate the cells by sonication, 5×10 seconds at 48% amplitude of a 750 W sonifier • 5. Add 2.5 ml MgCl2 (100 mM) and DNase 12.5 μl (0.8 mg/ml) and incubate on ice for 30 min • 6. Spin down the bacteria debris and save the supernatant, 7000 rpm for 15 min • 7. Isolate the protein containing membranes in the supernatant by ultracentrifugation 120000×g for 2 hour at 4° C. (Sorvall T880 rotor). • 8. Discard the supernatant and dissolve the pellet in 20 mM Potassium phosphate buffer pH7.4 (KH2PO4 and K2HPO4) buffer by sonication (5×10 s, 30% of a 50 W sonifier) and aliquot the enzyme and store aliquots at −80° C.
Before each experiment is performed an aliquot of the enzyme is thawed and it can then be dissolved in 0.1 M Potassium phosphate buffer pH7.4 (KH2PO4 and K2HPO4) buffer containing 2.5 mM GSH.
The aim of this assay is to determine the affinity of a test compound for the mPGES-1 enzyme.
47 μl of recombinant human mPGES-1 (˜0.5 μg protein/well) containing microsomal suspension in a buffer containing GSH, (2.5 mmol/L L-Glutathione reduced, dissolved in 0.1 mol/L Phosphat Buffer pH 7.4) is dispensed in a 384-well plate and thereafter 1 μl of the test compound(s) is/are added and incubated for 25 minutes at room temperature. The enzyme reaction is started by the addition of 2 ul PGH2 (final conc 2 μM) disolved in water-free Diglyme. After 60 seconds the reaction is terminated by addition of a stop solution containing FeCl2 (10 μL 0.074 mol/l FeCl2). The samples are diluted between 1:25 in PBS (Phosphate Buffered Saline). 10 μl of the diluted samples are transferred to 384-well low volume plate. In order to quantify the amount of PGE2 that has been formed, a homogenous time resolved fluorescent (HTRF) detecting of PGE2 has been performed using a commercially available kit from Cisbio according to the manufactures recommendation. This HTRF-based assay has been described in detail (see: Goedken et al., J Biomol Screen, 2008, 13(7), 619-625). Briefly, the diluted samples are mixed with 5 μl PGE2-d2 conjugate and 5 μl anti-PGE2 cryptate conjugate. After an incubation period of the plates over night, the fluorescence is measured by the use of an appropriate microplate reader.
The fluorescence of Europium cryptate (maxex=307 nm, maxem=620 nm) and d2-PGE2 (maxex=620 nm, maxem=665 nm) are measured.
The extent of the specific HTRF is measured as a ratio of the emission intensity at 665 nm vs. that at 620 nm at an excitation puts of 320 nm. The quantification plate contains also wells with different concentrations of PGE2 as calibration curve for the calculation of the PGE2 concentrations from the HTRF ratio values.
From all mPGES enzyme assay the background is subtracted and the IC50 is calculated over a nonlinear regression with conventional software.

mPGES-1 in A549 cells = mPGES-1 in A549 cells (Homo sapiens (Human), UniProt O14684); experiment: A549 cell-based assay (PGE2 formation, 50% human serum)
In short: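 PGE2 release, read by HTRF and set to 100% for vehicle, gave IC50s from 6-8 point titrations. Human A549 cells were exposed to compound for 20-24 h in medium with 50% human serum, with IL-1β (5 ng/ml) and arachidonic acid (10 nM) as stimulus.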

[2] = recombinant human mPGES-1 microsomes, PGH2 2 μM, 60 seconds, read-out: mPGES-1 inhibitory effect IC50 in the enzyme assay
[3] = IL-1β 5 ng/ml, 10 nM arachidonic acid, 20-24 h, read-out: mPGES-1 inhibitory effect IC50 in the cell assay
[4] = Table C comparison of selected benzimidazoles, read-out: Enzym IC50
[5] = Table C comparison of selected benzimidazoles, read-out: Cell IC50

Chain of recombinant human mPGES-1 (O14684 whole entry): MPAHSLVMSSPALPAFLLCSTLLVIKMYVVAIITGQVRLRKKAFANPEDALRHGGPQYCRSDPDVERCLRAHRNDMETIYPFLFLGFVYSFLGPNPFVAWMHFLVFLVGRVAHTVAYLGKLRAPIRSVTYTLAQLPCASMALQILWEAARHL
Chain of mPGES-1 in A549 cells (O14684 whole entry): as above

| SMILES | IC50 [1, 2] [nM] | IC50 (mPGES-1 in A549 cells; [3]) [nM] | IC50 [1, 4] [nM] | IC50 (mPGES-1 in A549 cells; [5]) [nM] |
| --- | --- | --- | --- | --- |
| Cn1c(Nc2c(Cl)ccc(CNC(=O)C(C)(C)F)c2Cl)nc2cc(C(=O)Nc3ccc(F)c(Cl)c3)c(N3CCC(C(F)(F)F)CC3)cc21 [Example 231, N-(3-Chloro-4-fluoro-phenyl)-2-{2,6-dichloro-3-[(2-fluoro-2-methyl-propionylamino)-methyl]-phenylamino}-6-[4-trifluoromethyl-piperidinyl]-1-methyl-1H-benzimidazole-5-carboxylic acid amide] | 2 | 1.1 |  |  |
| Cn1c(Nc2c(Cl)ccc(CNC(=O)C(C)(C)C)c2Cl)nc2cc(C(=O)N[C@H]3CC[C@H](C(F)(F)F)CC3)c(N3CCC(O)C3)cc21 (stereo partly drawn) [Example 84] | 3 | 16 |  |  |
| Cn1c(Nc2c(Cl)ccc(CNC(=O)C(C)(C)C)c2Cl)nc2cc(C(=O)N[C@H]3CC[C@H](C(F)(F)F)CC3)c(N3CCC3)cc21 [Example 96] | 16 | 21 |  |  |
| Cn1c(Nc2c(Cl)ccc(CNC(=O)C(C)(C)C)c2Cl)nc2cc(C(=O)NCC(F)(F)F)c(Nc3ccc(F)c(Cl)c3)cc21 [Example 30] | 5 | 144 |  |  |
| Cn1c(Nc2c(Cl)ccc(CNC(=O)C(C)(C)C)c2Cl)nc2cc(C(=O)N[C@H]3CC[C@H](C(F)(F)F)CC3)c(N3C[C@H]4C[C@@H](C3)[C@H]4O)cc21 [Example 126] | 2 | 1 |  |  |
| Cn1c(Nc2c(Cl)ccc(CNC(=O)C(C)(C)C)c2Cl)nc2cc(C(=O)NC3(c4ccc(F)cc4)CC3)c(N3CCC(F)(F)C3)cc21 [Example 37] | 5 | 3 |  |  |
| Cn1c(Nc2c(Cl)ccc(CNC(=O)C(C)(C)C)c2Cl)nc2cc(C(=O)NCc3ncccc3C(F)(F)F)c(N3CCC(F)(F)C3)cc21 [Example 43] | 3 | 5 |  |  |
| Cn1c(Nc2c(Cl)ccc(CNC(=O)C(C)(C)C)c2F)nc2cc(C(=O)Nc3ccc(F)c(Cl)c3)c(N3CCC(F)(F)C3)cc21 [Example 51] | 3 | < 1 |  |  |
| CN(CC(F)F)c1cc2c(cc1C(=O)Nc1ccc(F)c(Cl)c1)nc(Nc1c(Cl)ccc(CNC(=O)C(C)(C)C)c1Cl)n2C [Example 2, N-(4-Fluoro-3-chloro-phenyl)-2-{2,6-dichloro-3-[(2,2-dimethyl-propionylamino)-methyl]-phenylamino}-6-[N-methyl-N-(2,2-difluoroethyl)-amino]-1-methyl-1H-benzimidazole-5-carboxylic acid amide] | 2 | < 1 | 2 | < 1 |
| Cn1c(Nc2c(Cl)ccc(CNC(=O)C(C)(C)C)c2Cl)nc2cc(C(=O)NCCC(F)(F)F)c(N3CCC(C(F)(F)F)CC3)cc21 [Example 62] | 2 | < 1 |  |  |
| CC(C)(C)C(=O)NCc1ccc(Cl)c(Nc2nc3cc(C(=O)N[C@H]4CC[C@H](C(F)(F)F)CC4)c(N4CC[C@@H](F)C4)cc3n2CC(F)F)c1Cl [Example 79] | 3 | 1 |  |  |
| Cn1c(Nc2c(Cl)ccc(CNC(=O)C(C)(C)C)c2Cl)nc2cc(C(=O)Nc3ccc(OC(F)(F)F)cc3)c(N3CCC(C(F)(F)F)CC3)cc21 [Example 57] | 1 | 1 |  |  |
| Cn1c(Nc2c(Cl)ccc(CNC(=O)C(C)(C)C)c2Cl)nc2cc(C(=O)Nc3ccc(F)c(Cl)c3)c(NCC(F)F)cc21 [Example 17] | 3 | 6 | 3 | 6 |

The next lines start with the values.

| IC50 [1, 2] [nM] | IC50 (mPGES-1 in A549 cells; [3]) [nM] | IC50 [1, 4] [nM] | IC50 (mPGES-1 in A549 cells; [5]) [nM] | SMILES |
| --- | --- | --- | --- | --- |
| 2 | < 1 |  |  | Cn1c(Nc2c(Cl)ccc(CNC(=O)C(C)(C)F)c2Cl)nc2cc(C(=O)Nc3ccc(F)c(Cl)c3)c(N3CCC(F)(F)C3)cc21 [Example 154] |
| 5 | 28 |  |  | Cn1c(Nc2c(Cl)ccc(CNC(=O)c3cccc(O)c3)c2Cl)nc2cc(C(=O)NCCC(F)(F)F)c(N3CCC(C(F)(F)F)CC3)cc21 [Example 178] |
| 3.5 | < 1 |  |  | Cn1c(Nc2c(Cl)ccc(CNC(=O)C(C)(C)C)c2Cl)nc2cc(C(=O)Nc3ccc(OC(F)(F)F)cc3)c(N3CC[C@@H](F)C3)cc21 [Example 241] |
| 4.3 | 4 |  |  | Cn1c(Nc2c(Cl)ccc(CNC(=O)[C@](C)(O)C(F)(F)F)c2Cl)nc2cc(C(=O)N[C@H]3CC[C@@H](C(F)(F)F)CC3)c(N3CCC(C(F)(F)F)CC3)cc21 [Example 255] |
| 4.1 | 2 |  |  | Cn1c(Nc2c(Cl)ccc(CNC(=O)[C@](C)(O)C(F)(F)F)c2Cl)nc2cc(C(=O)NC3CC(F)(F)C3)c(N3CCC(C(F)(F)F)CC3)cc21 [Example 259] |
| 3.9 | 1 |  |  | Cn1c(Nc2c(Cl)ccc(CNC(=O)[C@@](C)(O)C(F)(F)F)c2Cl)nc2cc(C(=O)N[C@H]3CC[C@H](C(F)(F)F)CC3)c(N3CCC(C(F)(F)F)CC3)cc21 [Example 251] |
| 3 | 1 |  |  | Cn1c(Nc2c(Cl)ccc(CNC(=O)C(C)(C)C)c2Cl)nc2cc(C(=O)Nc3ccc(OC(F)(F)F)cc3)c(N3CCCC(C(F)(F)F)C3)cc21 (stereo not drawn) [Example 136] |
| 1.7 | 1 |  |  | Cn1c(Nc2c(Cl)ccc(CNC(=O)C(C)(C)C(F)(F)F)c2Cl)nc2cc(C(=O)N[C@H]3CC[C@H](C(F)(F)F)CC3)c(N3CCC(C(F)(F)F)CC3)cc21 [Example 250] |
| 2 | 3 |  |  | CC(C)(O)Cn1c(Nc2c(Cl)ccc(CNC(=O)C(C)(C)C)c2Cl)nc2cc(C(=O)N[C@H]3CC[C@H](C(F)(F)F)CC3)c(N3CCC(C(F)(F)F)CC3)cc21 [Example 165] |
| 2 | 7 |  |  | Cn1c(Nc2c(Cl)ccc(CNC(=O)c3nccs3)c2Cl)nc2cc(C(=O)NCCC(F)(F)F)c(N3CCC(C(F)(F)F)CC3)cc21 [Example 182] |
| 4 | 7 |  |  | CC(C)(C)C(=O)NCc1ccc(Cl)c(Nc2nc3cc(C(=O)N[C@H]4CC[C@H](C(F)(F)F)CC4)c(N4CC5CC5C4)cc3n2C2(C(C)(C)O)CC2)c1Cl (stereo partly drawn) [Example 164] |
| 1 | < 1 |  |  | Cn1c(Nc2c(Cl)ccc(CNC(=O)C(C)(C)C)c2Cl)nc2cc(C(=O)N[C@H]3CC[C@H](C(F)(F)F)CC3)c(N3CCN(C4CC4)CC3)cc21 [Example 108] |
| 1.9 | 3.5 |  |  | Cn1c(Nc2c(Cl)ccc(CNC(=O)C(C)(C)C(F)(F)F)c2Cl)nc2cc(C(=O)NC3CC(F)(F)C3)c(N3CCC(C(F)(F)F)CC3)cc21 [Example 257] |
| 3.5 | 5 |  |  | Cn1c(Nc2c(Cl)ccc(CNC(=O)C(C)(C)F)c2Cl)nc2cc(C(=O)Nc3ccc(OC(F)(F)F)cc3)c(N3CC[C@@H](F)C3)cc21 [Example 239] |
| 1 | < 1 |  |  | C#CCN(C)c1cc2c(cc1C(=O)N[C@H]1CC[C@H](C(F)(F)F)CC1)nc(Nc1c(Cl)ccc(CNC(=O)C(C)(C)C)c1Cl)n2C [Example 103, N-(trans-4-Trifluoromethyl-cyclohexyl)-2-{2,6-dichloro-3-[(2,2-dimethyl-propionylamino)-methyl]-phenylamino}-6-[N-methyl-N-propargylamino]-1-methyl-1H-benzimidazole-5-carboxylic acid amide] |
